Legend:
Human δ-opioid (DOP) = target: T1, Human δ-opioid (DOP) (Homo sapiens, UniProt P41143); assay: Radioligand binding, human δ-opioid (DOP) membranes, FlashPlate, [3H]-Bremazocine; conditions: compound at 10 μM, [3H]-Bremazocine
T1 construct: purchased Perkin Elmer Biosignal
How it was run: (§1)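 Cloned human receptor membranes were coated onto FlashPlate wells and incubated with radioligand and compound (added from a 0.5 mM DMSO daughter plate) for 1 hour at room temperature in the dark. Scintillation counting gave percent inhibition, with DMSO defining total and reference ligand defining non-specific binding.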

Human κ-Opioid (KOP) = target: T2, Human κ-Opioid (KOP) (Homo sapiens, UniProt P41145); assay: Radioligand binding, human κ-opioid (KOP) membranes, filtration, [3H]-Diprenorphine; conditions: compound at 10 μM, [3H]-Diprenorphine
T2 construct: purchased Perkin Elmer Biosignal
How it was run: (§2)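 Membranes from cloned human receptors were incubated with compound and radioligand for 1 hour at room temperature. Bound ligand was collected on 0.3% PEI-soaked filters, washed with cold 50 mM Tris-HCl pH 7.4, and counted by scintillation. Percent inhibition was computed against DMSO totals and reference-ligand nonspecific wells.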

Human Melanocortin (MC3) = target: T3, Human Melanocortin (MC3) (Homo sapiens, UniProt P41968); assay: Radioligand binding, human melanocortin MC3 membranes, FlashPlate, [125I]-NDP-αMSH; conditions: compound at 10 μM, [125I]-NDP-αMSH
T3 construct: purchased Perkin Elmer Biosignal
How it was run: as §1

Human Melanocortin (MC4) = target: T4, Human Melanocortin (MC4) (Homo sapiens, UniProt P32245); assay: Radioligand binding, human melanocortin MC4 membranes, FlashPlate, [125I]-NDP-αMSH; conditions: compound at 10 μM, [125I]-NDP-αMSH
T4 construct: purchased Perkin Elmer Biosignal
How it was run: as §1

Human melanocortin (MC5) = target: T5, Human melanocortin (MC5) (Homo sapiens, UniProt P33032); assay: Radioligand binding, human melanocortin MC5 membranes, FlashPlate, [125I]-NDP-αMSH; conditions: compound at 10 μM, [125I]-NDP-αMSH
T5 construct: purchased Perkin Elmer Biosignal
How it was run: as §1

[1] = target: T6, Human melanin-concentrating hormone (MCH1) (Homo sapiens, UniProt Q99705); assay: Radioligand binding, human melanin-concentrating hormone MCH1 membranes, FlashPlate, [125I]-S36057; conditions: compound at 10 μM; for A6: inhibition of radioligand binding, human melanin-concentrating hormone (MCH1): [125I]-S36057
T6 construct: purchased Perkin Elmer Biosignal
How it was run: as §1

Human μ-opioid (MOP) = target: T7, Human μ-opioid (MOP) (Homo sapiens, UniProt P35372); assay: Radioligand binding, human μ-opioid (MOP) membranes, FlashPlate, [3H]-Naloxone; conditions: compound at 10 μM, [3H]-Naloxone
T7 construct: purchased Perkin Elmer Biosignal
How it was run: as §1

Human neurokinin (NK1) = target: T8, Human neurokinin (NK1) (Homo sapiens, UniProt P25103); assay: Radioligand binding, human neurokinin NK1 membranes, filtration, [125I]-Substance P; conditions: compound at 10 μM, [125I]-Substance P
T8 construct: purchased Perkin Elmer Biosignal
How it was run: as §2

[2] = target: T9, Human neuropeptide Y (NPY-Y1) (Homo sapiens, UniProt P25929); assay: Radioligand binding, human neuropeptide Y NPY-Y1 membranes, FlashPlate, [125I]-PYY; conditions: compound at 10 μM, [125I]-PYY
T9 construct: purchased Perkin Elmer Biosignal
T9 sequence (P25929 1-384): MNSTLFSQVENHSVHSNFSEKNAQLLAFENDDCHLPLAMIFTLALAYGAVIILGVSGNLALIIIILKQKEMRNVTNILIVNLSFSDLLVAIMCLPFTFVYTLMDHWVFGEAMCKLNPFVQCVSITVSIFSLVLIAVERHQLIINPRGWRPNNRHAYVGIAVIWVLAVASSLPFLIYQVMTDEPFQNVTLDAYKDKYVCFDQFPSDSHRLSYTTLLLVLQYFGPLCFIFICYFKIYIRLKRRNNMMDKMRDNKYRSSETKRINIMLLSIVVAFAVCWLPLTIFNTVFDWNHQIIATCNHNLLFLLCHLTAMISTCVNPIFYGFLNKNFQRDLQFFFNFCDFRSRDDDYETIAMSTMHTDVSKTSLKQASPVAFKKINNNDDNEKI
How it was run: as §1

Human opioid (ORL1) = target: T10, Human opioid (ORL1) (Homo sapiens, UniProt P41146); assay: Radioligand binding, human opioid ORL1 membranes, FlashPlate, [125I]-Nociceptin; conditions: compound at 10 μM, [125I]-Nociceptin
T10 construct: purchased Perkin Elmer Biosignal
How it was run: as §1

Mouse urotensin (mUR2) = target: T11, Mouse urotensin (mUR2) (Mus musculus, UniProt Q8VIH9); assay: Radioligand binding, mouse urotensin mUR2 membranes, FlashPlate, [125I]-Urotensin II; conditions: compound at 10 μM, [125I]-Urotensin II
T11 construct: purchased Perkin Elmer Biosignal
T11 sequence (Q8VIH9 1-385): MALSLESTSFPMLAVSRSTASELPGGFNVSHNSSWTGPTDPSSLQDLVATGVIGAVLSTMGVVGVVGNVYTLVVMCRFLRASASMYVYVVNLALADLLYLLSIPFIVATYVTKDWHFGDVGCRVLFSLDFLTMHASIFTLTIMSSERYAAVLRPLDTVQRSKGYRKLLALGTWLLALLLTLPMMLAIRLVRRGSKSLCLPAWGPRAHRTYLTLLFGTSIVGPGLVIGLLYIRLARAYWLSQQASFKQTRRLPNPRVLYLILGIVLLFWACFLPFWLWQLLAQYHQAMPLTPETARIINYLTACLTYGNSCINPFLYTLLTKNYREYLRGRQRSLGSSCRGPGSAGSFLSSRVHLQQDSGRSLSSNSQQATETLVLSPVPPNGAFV
How it was run: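 Cloned mouse urotensin (mUR2) receptor membranes from Perkin Elmer Biosignal were immobilized in FlashPlate microplates using a proprietary coating. Each well got 19.5 μl buffer, then 0.5 μl of DMSO, reference ligand, or compound. Adding 5 μl of [125I]-Urotensin II, diluted to 5× final concentration in binding buffer, started binding. Plates were sealed with TopSeal-A and incubated 1 hour at room temperature in the dark. Wells were counted for 30 seconds each on a TopCount after a 60-second delay, and percentage inhibition was calculated.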

T6 sequence (Q99705 whole entry): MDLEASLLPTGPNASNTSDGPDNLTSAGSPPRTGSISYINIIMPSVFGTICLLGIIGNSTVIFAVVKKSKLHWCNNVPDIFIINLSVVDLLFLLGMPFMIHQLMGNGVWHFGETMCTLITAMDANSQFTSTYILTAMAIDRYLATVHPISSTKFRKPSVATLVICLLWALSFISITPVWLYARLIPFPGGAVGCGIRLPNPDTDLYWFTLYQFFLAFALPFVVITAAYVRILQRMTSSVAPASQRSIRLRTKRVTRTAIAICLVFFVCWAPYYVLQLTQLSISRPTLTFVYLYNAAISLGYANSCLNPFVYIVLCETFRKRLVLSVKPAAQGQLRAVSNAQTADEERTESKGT
T8 sequence (P25103 whole entry): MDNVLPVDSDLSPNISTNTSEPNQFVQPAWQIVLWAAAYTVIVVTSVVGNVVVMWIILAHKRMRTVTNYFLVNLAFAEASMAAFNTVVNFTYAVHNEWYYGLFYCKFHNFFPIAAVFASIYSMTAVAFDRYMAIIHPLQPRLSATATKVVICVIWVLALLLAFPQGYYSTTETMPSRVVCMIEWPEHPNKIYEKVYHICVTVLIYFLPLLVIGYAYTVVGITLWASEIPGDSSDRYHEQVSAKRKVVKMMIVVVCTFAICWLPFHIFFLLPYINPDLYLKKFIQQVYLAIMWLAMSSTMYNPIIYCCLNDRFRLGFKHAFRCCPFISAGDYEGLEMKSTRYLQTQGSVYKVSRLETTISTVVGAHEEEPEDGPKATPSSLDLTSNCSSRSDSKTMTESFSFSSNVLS
T7 sequence (P35372 whole entry): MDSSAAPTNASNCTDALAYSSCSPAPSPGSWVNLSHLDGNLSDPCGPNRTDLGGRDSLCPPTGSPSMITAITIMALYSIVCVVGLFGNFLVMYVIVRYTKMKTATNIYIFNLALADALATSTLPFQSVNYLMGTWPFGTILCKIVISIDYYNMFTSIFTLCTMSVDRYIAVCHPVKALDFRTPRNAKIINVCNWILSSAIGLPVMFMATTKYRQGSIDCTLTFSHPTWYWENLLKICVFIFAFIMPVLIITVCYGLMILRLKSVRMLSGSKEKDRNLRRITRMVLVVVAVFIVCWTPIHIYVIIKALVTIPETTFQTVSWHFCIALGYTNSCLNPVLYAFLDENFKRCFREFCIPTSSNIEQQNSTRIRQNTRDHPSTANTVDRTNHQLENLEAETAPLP
T2 sequence (P41145 whole entry): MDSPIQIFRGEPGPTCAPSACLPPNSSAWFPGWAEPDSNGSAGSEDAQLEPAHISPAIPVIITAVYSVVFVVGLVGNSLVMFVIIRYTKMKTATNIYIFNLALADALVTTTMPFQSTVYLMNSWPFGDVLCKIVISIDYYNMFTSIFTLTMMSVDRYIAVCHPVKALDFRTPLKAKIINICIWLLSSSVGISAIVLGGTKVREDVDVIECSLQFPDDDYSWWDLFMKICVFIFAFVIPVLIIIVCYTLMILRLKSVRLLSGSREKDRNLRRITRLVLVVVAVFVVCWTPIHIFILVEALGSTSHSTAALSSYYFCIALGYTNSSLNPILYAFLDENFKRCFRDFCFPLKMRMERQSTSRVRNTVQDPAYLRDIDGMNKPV
T5 sequence (P33032 whole entry): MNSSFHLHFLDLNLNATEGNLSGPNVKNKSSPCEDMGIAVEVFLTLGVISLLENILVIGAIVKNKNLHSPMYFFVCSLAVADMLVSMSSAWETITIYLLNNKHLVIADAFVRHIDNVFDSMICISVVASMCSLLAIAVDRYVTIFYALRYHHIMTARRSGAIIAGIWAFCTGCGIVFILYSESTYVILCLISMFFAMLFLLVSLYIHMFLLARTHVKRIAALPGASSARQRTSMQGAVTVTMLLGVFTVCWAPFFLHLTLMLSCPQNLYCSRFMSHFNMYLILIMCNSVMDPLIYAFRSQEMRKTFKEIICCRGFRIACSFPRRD
T3 sequence (P41968 whole entry): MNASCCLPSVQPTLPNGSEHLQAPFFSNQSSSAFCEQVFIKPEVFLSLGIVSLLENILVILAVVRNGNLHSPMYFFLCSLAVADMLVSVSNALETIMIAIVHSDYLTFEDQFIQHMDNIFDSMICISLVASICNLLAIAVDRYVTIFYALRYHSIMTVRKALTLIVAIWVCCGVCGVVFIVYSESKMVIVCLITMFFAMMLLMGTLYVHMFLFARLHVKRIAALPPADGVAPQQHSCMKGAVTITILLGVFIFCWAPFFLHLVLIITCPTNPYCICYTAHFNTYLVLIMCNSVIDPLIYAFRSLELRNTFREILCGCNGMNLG
T4 sequence (P32245 whole entry): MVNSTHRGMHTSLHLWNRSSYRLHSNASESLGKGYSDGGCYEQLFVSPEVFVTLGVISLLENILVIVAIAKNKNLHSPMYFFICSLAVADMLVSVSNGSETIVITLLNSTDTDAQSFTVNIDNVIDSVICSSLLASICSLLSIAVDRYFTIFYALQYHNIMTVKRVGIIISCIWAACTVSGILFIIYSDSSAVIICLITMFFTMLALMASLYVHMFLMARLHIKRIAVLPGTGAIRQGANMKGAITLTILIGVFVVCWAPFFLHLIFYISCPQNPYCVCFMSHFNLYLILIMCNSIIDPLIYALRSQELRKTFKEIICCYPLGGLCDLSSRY
T1 sequence (P41143 whole entry): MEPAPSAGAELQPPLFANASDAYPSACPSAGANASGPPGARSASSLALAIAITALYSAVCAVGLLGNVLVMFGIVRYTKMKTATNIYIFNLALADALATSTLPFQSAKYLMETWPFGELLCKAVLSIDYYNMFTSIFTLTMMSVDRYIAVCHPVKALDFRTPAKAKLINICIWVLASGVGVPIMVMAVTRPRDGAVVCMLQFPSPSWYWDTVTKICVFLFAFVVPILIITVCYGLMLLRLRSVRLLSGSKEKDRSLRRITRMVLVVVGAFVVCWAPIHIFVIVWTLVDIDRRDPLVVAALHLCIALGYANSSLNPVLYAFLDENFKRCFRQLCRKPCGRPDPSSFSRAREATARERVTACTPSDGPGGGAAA
T10 sequence (P41146 whole entry): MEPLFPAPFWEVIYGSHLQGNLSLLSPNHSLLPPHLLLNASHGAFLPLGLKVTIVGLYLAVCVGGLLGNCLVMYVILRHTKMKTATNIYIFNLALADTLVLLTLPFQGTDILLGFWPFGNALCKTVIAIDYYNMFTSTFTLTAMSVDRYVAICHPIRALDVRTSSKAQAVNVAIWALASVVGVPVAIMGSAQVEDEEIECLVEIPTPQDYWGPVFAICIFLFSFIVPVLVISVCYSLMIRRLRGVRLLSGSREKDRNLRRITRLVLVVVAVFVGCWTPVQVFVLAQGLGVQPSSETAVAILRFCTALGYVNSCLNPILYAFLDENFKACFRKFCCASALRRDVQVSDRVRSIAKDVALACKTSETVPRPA

| SMILES | A1: inhibition of radioligand binding, human δ-opioid (DOP) (Human δ-opioid (DOP)) | A2: inhibition of radioligand binding, human κ-opioid (KOP) (Human κ-Opioid (KOP)) | A3: inhibition of radioligand binding, human melanocortin (MC3) (Human Melanocortin (MC3)) | A6: inhibition of radioligand binding, human melanin-concentrating hormone (MCH1) ([1]; 10 µM) | A7: inhibition of radioligand binding, human μ-opioid (MOP) (Human μ-opioid (MOP)) | A8: inhibition of radioligand binding, human neurokinin (NK1) (Human neurokinin (NK1)) | A9: inhibition of radioligand binding, human neuropeptide Y (NPY-Y1) [2] | A10: inhibition of radioligand binding, human opioid (ORL1) (Human opioid (ORL1)) | A11: inhibition of radioligand binding, mouse urotensin (mUR2) (Mouse urotensin (mUR2)) | A4: inhibition of radioligand binding, human melanocortin (MC4) (Human Melanocortin (MC4)) | A5: inhibition of radioligand binding, human melanocortin (MC5) (Human melanocortin (MC5)) | A6: inhibition of radioligand binding, human melanin-concentrating hormone (MCH1) [1] | other results |
| --- | --- | --- | --- | --- | --- | --- | --- | --- | --- | --- | --- | --- | --- |
| NCCCC(=O)NC1C(OCc2ccc(Cl)cc2)OC(COCc2ccccc2)C(O)C1OCc1ccc(Cl)cc1 (single isomer, unassigned) [compound 492] | − (“−” indicates less than 50% inhibition at 10 μM) | − (“−” indicates less than 50% inhibition at 10 μM) | − (“−” indicates less than 50% inhibition at 10 μM) | + (“+” indicates greater than 50% inhibition at 10 μM) | − (“−” indicates less than 50% inhibition at 10 μM) | + (“+” indicates greater than 50% inhibition at 10 μM) | − (“−” indicates less than 50% inhibition at 10 μM) | + (“+” indicates greater than 50% inhibition at 10 μM) | − (“−” indicates less than 50% inhibition at 10 μM) |  |  |  | A4: inhibition of radioligand binding, human melanocortin (MC4) (Human Melanocortin (MC4); 10 µM): + (“+” indicates greater than 50% inhibition at 10 μM); A5: inhibition of radioligand binding, human melanocortin (MC5) (Human melanocortin (MC5); 10 µM): + (“+” indicates greater than 50% inhibition at 10 μM) |
| COCC1OC(OCCc2ccccc2)C(NC(=O)CCCNC(=N)N)C(OCc2ccc(Cl)cc2)C1O (stereo not shown) [compound 223] |  |  |  |  |  |  |  |  |  |  |  |  | A1: inhibition of radioligand binding (Human δ-opioid (DOP); FlashPlate): − (“−” indicates less than 50% inhibition at 10 μM); A2: inhibition of radioligand binding (Human κ-Opioid (KOP); filtration): − (“−” indicates less than 50% inhibition at 10 μM); A3: inhibition of radioligand binding (Human Melanocortin (MC3); FlashPlate): − (“−” indicates less than 50% inhibition at 10 μM); A4: inhibition of radioligand binding (Human Melanocortin (MC4); FlashPlate): + (“+” indicates greater than 50% inhibition at 10 μM); A5: inhibition of radioligand binding (Human melanocortin (MC5); FlashPlate): + (“+” indicates greater than 50% inhibition at 10 μM); A6: inhibition of radioligand binding ([1]; [125I]-S36057, FlashPlate): + (“+” indicates greater than 50% inhibition at 10 μM); A7: inhibition of radioligand binding (Human μ-opioid (MOP); FlashPlate): − (“−” indicates less than 50% inhibition at 10 μM); A8: inhibition of radioligand binding (Human neurokinin (NK1); filtration): + (“+” indicates greater than 50% inhibition at 10 μM); A9: inhibition of radioligand binding ([2]; FlashPlate): − (“−” indicates less than 50% inhibition at 10 μM); A10: inhibition of radioligand binding (Human opioid (ORL1); FlashPlate): − (“−” indicates less than 50% inhibition at 10 μM); A11: inhibition of radioligand binding (Mouse urotensin (mUR2); FlashPlate): − (“−” indicates less than 50% inhibition at 10 μM) |
| CSC1OC(COCc2cccc(N)c2)C(O)C(OCc2ccccc2)C1NC(=O)c1c[nH]c2ccccc12 (stereo not shown) [compound 326] | − (“−” indicates less than 50% inhibition at 10 μM) | − (“−” indicates less than 50% inhibition at 10 μM) | − (“−” indicates less than 50% inhibition at 10 μM) |  | − (“−” indicates less than 50% inhibition at 10 μM) | + (“+” indicates greater than 50% inhibition at 10 μM) | − (“−” indicates less than 50% inhibition at 10 μM) | − (“−” indicates less than 50% inhibition at 10 μM) | − (“−” indicates less than 50% inhibition at 10 μM) | − (“−” indicates less than 50% inhibition at 10 μM) | − (“−” indicates less than 50% inhibition at 10 μM) | − (“−” indicates less than 50% inhibition at 10 μM) |  |
| NCCCC(=O)NC1C(OCc2ccc(Cl)cc2)OC(COCc2ccc(Cl)cc2)C(O)C1OCc1ccccc1 (single isomer, unassigned) [compound 506] | − (“−” indicates less than 50% inhibition at 10 μM) | − (“−” indicates less than 50% inhibition at 10 μM) | − (“−” indicates less than 50% inhibition at 10 μM) |  |  | + (“+” indicates greater than 50% inhibition at 10 μM) | − (“−” indicates less than 50% inhibition at 10 μM) |  | − (“−” indicates less than 50% inhibition at 10 μM) | − (“−” indicates less than 50% inhibition at 10 μM) | + (“+” indicates greater than 50% inhibition at 10 μM) | − (“−” indicates less than 50% inhibition at 10 μM) | A7: inhibition of radioligand binding, human μ-opioid (MOP) (Human μ-opioid (MOP); 10 µM): − (“−” indicates less than 50% inhibition at 10 μM); A10: inhibition of radioligand binding, human opioid (ORL1) (Human opioid (ORL1); 10 µM): + (“+” indicates greater than 50% inhibition at 10 μM) |
| NCCCC(=O)NC1C(OCc2ccc(Cl)cc2)OC(COCc2ccc3ccccc3c2)C(O)C1OCc1ccc(Cl)cc1 (single isomer, unassigned) [compound 489] | − (“−” indicates less than 50% inhibition at 10 μM) | − (“−” indicates less than 50% inhibition at 10 μM) | + (“+” indicates greater than 50% inhibition at 10 μM) | − (“−” indicates less than 50% inhibition at 10 μM) | + (“+” indicates greater than 50% inhibition at 10 μM) | + (“+” indicates greater than 50% inhibition at 10 μM) | − (“−” indicates less than 50% inhibition at 10 μM) | + (“+” indicates greater than 50% inhibition at 10 μM) | − (“−” indicates less than 50% inhibition at 10 μM) | + (“+” indicates greater than 50% inhibition at 10 μM) | + (“+” indicates greater than 50% inhibition at 10 μM) |  |  |

Source: patent US20080009418A1, “Selective Inhibitors” (Alchemia LTD., priority 2004, published 2008)
